One data set has as its system CT26 cell line. Nature of the data set: Cytotoxicity assay (CellTiterGlo), CT26. The class given is cell-based, murine. The following applies: 1 mM arginase inhibitor, 72 h. How it is done:
(§1) Cytotoxicity assays. […] Cytotoxicity was assayed by the addition of CellTiterGlo reagent according to the manufacturer's instructions (Promega, Madison, Wis.) followed by […] quantification on a Molecular Devices plate reader (Sunnyvale, Calif.).

The subject of a further data set is LLC cell line. Nature of the data set: Cytotoxicity assay (CellTiterGlo), LLC. The data set is classed as cell-based, murine. Conditions: 1 mM arginase inhibitor, 72 h. Here is the method:
as §1
Background: Cellular ATP, detected with luciferase, serves as a proxy for viable cell number.

The subject of another data set is CT26 lung metastases. Nature of the data set: Adoptive NK cell transfer study, CT26 lung metastasis model. The following applies: compared to control groups, 14 days. The data set is classed as in vivo, mouse. How it is done: Adoptive NK cell transfer studies. Balb/c mice were inoculated i.v. with 1×10^5 CT26 cells. 1×10^6NK cells (isolated from Balb/c spleens the day before injection and incubated with recombinant IL-2 and IL-15 for 18 h) were transferred on the same day as tumor inoculation. The injected NK cells were profiled by flow cytometry to be CD25^+ and 80-90% pure with less than 0.4% T cells.

Data set [1] addresses T1, Recombinant murine inducible NOS (Mus musculus, UniProt P29477).
T1 construct: Eurofins/Cerep Panlabs (contract laboratory that ran the assay)
Nature of the data set: NOS activity assay, inducible NOS. The data set is classed as biochemical. Conditions: 50 μM arginase inhibitor. The text has this:
Nitric oxide (NO) synthase (NOS) activity assays.
Standard deviations are indicated in parentheses. […] N/A=not applicable.

The next data set has as its system 4T1 tumors. Kind of data set: 4T1 orthotopic tumor model. The data set is classed as in vivo, mouse. From the text: (§2) Murine tumor studies. Female wild-type C57BL/6 and Balb/c mice (5-6 weeks old) were purchased from Charles River Laboratories (Hollister, Calif.). Severe combined immune deficient (SCID, B6.CB17-PrkdcSCID/SzJ) and Pmel-1 TCR transgenic (B6.Cg-Thyla/Cy Tg(TcraTcrb)8Rest/J) mice (5-6 weeks old) were purchased from The Jackson Laboratory (Bar Harbor, Me.). All mice were housed and treated in accordance with Institutional Animal Care and Use Committee guidelines. For the 4T1 tumor model, 1×10^5 cells were injected orthotopically into the mammary fat pad; for all other tumor models, 1×10^6 cells were injected subcutaneously (s.c.) in the right flank. […] Control groups received vehicle (water) twice daily by gavage. Tumor volume measured by digital caliper (length×width×width/2) and body weight were recorded three times weekly. Animals were euthanized when tumors necrotized or volumes reached 2000 mm^3. Anti-PD-L1 antibody (5 mg/kg, clone 10F.9G2, BioXCell, West Lebanon, N.H.) was injected intraperitoneally (i.p.) on days 5, 7, 9, 11, 13, and 15 for the CT26 model. Gemcitabine (Selleckchem, Houston, Tex.) was dosed 50 mg/kg i.p. on days 10 and 16 for the CT26 model or 60 mg/kg i.p. on days 6 and 10 for the LLC model. For CD8^+ cell depletion, mice were injected i.p. with anti-CD8 antibody (25 mg/kg, clone 2.43, BioXCell) on days −1, 0, +5, and +10. For NK cell depletion, mice were injected i.p. with anti-NK1.1 antibody (25 mg/kg, clone PK136, BioXCell) in the LLC and B16 models or with anti-Asialo GM1 sera (20 μL, Wako Chemicals, Richmond, Va.) in the CT26 model, per the same schedule as anti-CD8.
(§3) Tumor dissociation and flow cytometry. […] Excised tumors were placed in RPMI-1640 containing 5% FBS on ice, minced with a razor blade, and dissociated in RPMI-1640 supplemented with mouse tumor dissociation enzymes (Miltenyi Biotec, Bergisch Gladbach, Germany) on a GentleMACS Octo Dissociator With Heat (Miltenyi Biotec) according to the manufacturer's instructions. Dissociated tumors were strained through 70 μm nylon mesh, washed with cold PBS containing 2% FBS, blocked with anti-CD16/CD32 (Fc block antibody, eBioscience), and stained for cell surface antigens. For B16 and 4T1 tumors, washed dissociated tumor cells were incubated with Dead Cell Removal MicroBeads (Miltenyi Biotec) and applied to a magnetic column prior to staining. For intracellular staining, cells were fixed and permeabilized using buffers purchased from R&D Systems or eBioscience for cytoplasmic or nuclear antigens, respectively. All tumor flow experiments were acquired on an Attune N×T flow cytometer and analyzed with FlowJo software version 10 (Ashland, Oreg.), using fluorescence-minus-one controls for gating and single-stained OneComp eBeads (eBioscience) to set compensation matrices.

The subject of data set [2] is cancer patient granulocyte-mediated suppression of T cell proliferation. Nature of the data set: T cell proliferation in media conditioned by granulocytes of a head and neck cancer patient. The class given is cell-based, human. How it is done:
T cell/myeloid cell co-culture assays. […] Granulocytes were incubated for 48 h at 37° C., during which time they spontaneously activate as determined by surface expression of CD66b and scatter properties. T cells isolated from the same donor using a pan-T cell isolation kit (Stemcell Technologies) were loaded with CFSE and plated with immobilized anti-CD3 and soluble anti-CD28 in the presence of the aged granulocytes. The cells were co-cultured at several ratios of granulocytes to T cells as indicated or at a fixed ratio of 4 T cells to 1 granulocyte. Co-cultures were incubated for 3-4 days, at which time media were analyzed for L-arginine and L-ornithine by mass spectrometry and T cell proliferation was determined by flow cytometry. Granulocytic MDSC (G-MDSC) or granulocytes from cancer patients were isolated from whole blood purchased from Conversant Biologics. G-MDSCs were purified from the PBMC layer of a Ficoll gradient by positive selection for CD66b^+ cells. Granulocytes were purified from the RBC layer of a Ficoll gradient using Hetasep (Stemcell Technologies). G-MDSC or granulocytes were incubated in co-culture media containing 100 μM L-arginine for 48 h, at which time the cells were removed and the G-MDSC- or granulocyte-conditioned media were used for incubating healthy donor CFSE-loaded T cells on immobilized anti-CD3/soluble anti-CD28 for 3-4 days. Cytokines were quantified in the media from T cell co-culture assays using the Cytometric Bead Array kit according to the manufacturer's instructions (BD Biosciences).

For a further data set, the system named is CT26 tumors. The class given is in vivo.
From the text: as §2, §3

Data set [3] can be described thus: Tolerability and body weight in mice. The data set is classed as in vivo.
From the text: as §2, with “For NK cell depletion, mice were injected i.p. with anti-NK1.1 antibody (25 mg/kg, clone PK136, BioXCell) in the LLC and B16 models or with anti-Asialo GM1 sera (20 μL, Wako Chemicals, Richmond, Va.) in the CT26 model, per the same schedule as anti-CD8.” left out

The test system of another data set is B16 cell line. Nature of the data set: Cytotoxicity assay (CellTiterGlo), B16. The class given is cell-based, murine. Conditions: 1 mM arginase inhibitor, 72 h. Here is the method: as §1
In another data set the test system is 4T1 cell line. Kind of data set: Cytotoxicity assay (CellTiterGlo), 4T1. Conditions: 1 mM arginase inhibitor, 72 h. The class given is cell-based, murine. How it is done:
as §1

Where [4] appears, read: 100 mg/kg BID, study day 10, flow cytometry.

“Also recorded” adds a separate entry of the source.

On to `C[C@H](N)C(=O)N1C[C@H](CCCB(O)O)[C@](N)(C(=O)O)C1` [arginase inhibitor], for which the “Growth inhibition of CT26 cell line” value in the data set on CT26 cell line is on record as “No growth inhibition”. Moreover, the “Growth inhibition of LLC cell line” value in the data set with LLC cell line is given as “No growth inhibition”. For the same compound, the “Lung metastases, combination with NK cells” value in the data set with CT26 lung metastases is listed as “significantly fewer lung metastases”. Besides, the “Inhibition of inducible NOS” value in data set [1] is on record as “No inhibition”. In addition, the “Tumor growth, single agent” value in the data set with 4T1 tumors (100 mg/kg BID PO) was “significantly inhibited the growth; also recorded: modest effect on tumor growth”. In the data set on 4T1 tumors (setting [4]), the “CD3+ T cells in the tumor vs vehicle” value is reported as “increase”, the “Myeloid cells in the tumor vs vehicle” value is recorded as “decrease” and the “NK cells in the tumor vs vehicle” value is “increase”. In data set [2] (T cells in cancer patient granulocyte-conditioned media), the “Secretion of interferon-γ and granzyme-B into the media” value is reported as “restored secretion”. In data set [2] (granulocytes of a head and neck cancer patient), the “Arginine depletion of the media” value is “arginine depletion was blocked”. The “T cell proliferation restored, of control levels” value in [2] (media conditioned by granulocytes of a head and neck cancer patient) was 79%. The “Tumor growth, single agent” value in the data set on CT26 tumors (100 mg/kg BID PO) was “significantly inhibited the growth; also recorded: reduced”. In the data set with CT26 tumors (100 mg/kg BID, study day 14, flow cytometry), the “Tumor-infiltrating activated CD25+ CD8+ cytotoxic T cells vs vehicle” value is “increase”. In addition, in the data set with CT26 tumors (100 mg/kg twice daily, depleting antibodies), the “Efficacy after depletion of either CD8+ cells or NK cells” value is reported as “blocked the efficacy”. In the data set on CT26 tumors (arginase inhibitor 100 mg/kg BID plus anti-PD-L1 5 mg/kg i.p., vs monotherapies), the “Tumor growth inhibition, combination with anti-PD-L1” value was “enhanced”. In addition, the “Survival at study day 46, combination with anti-PD-L1” value with CT26 tumors (arginase inhibitor plus anti-PD-L1) amounted to 90%. In the data set with CT26 tumors (arginase inhibitor plus anti-PD-L1, N=10 per group), the “Complete responses, combination with anti-PD-L1” value was “six”. In addition, the “Tumor growth inhibition, combination with gemcitabine” value in the data set on CT26 tumors (gemcitabine 50 mg/kg i.p. days 10 and 16) is recorded as “significant increase in tumor growth inhibition”. Moreover, in data set [3] (100 mg/kg twice daily for 23 days, no significant clinical observations or impact on body weight), the Tolerability result is given as “well-tolerated”. The “Duration for which twice-daily oral dosing was well-tolerated” value in data set [3] (mice) is recorded as “at least 40 days”. Besides, the “Growth inhibition of B16 cell line” value in the data set with B16 cell line is “No growth inhibition”. Moreover, the “Growth inhibition of 4T1 cell line” value in the data set on 4T1 cell line is given as “No growth inhibition”.

The record behind these values is US11291674B2 (CALITHERA BIOSCIENCES, INC., priority 2016, dated 2022).
